# Laboratory results published in patent US10328092B2, “Methods and compositions for treatment of drug addiction” (The Royal Institution for the Advancement of Learning / …, priority 2015, dated 2019).
# Assays:
# [1] = system: primary rat microglia cultures; test: TNFα mRNA in primary rat microglia cultures; assay type: cell-based
# Description: For tissue, total RNA from the ventral striatum was extracted and isolated by RNAqueous-4PCR total RNA isolation kit (Ambion, AM1914), according to manufacturer's instructions. For microglia and astrocyte cultures, total RNA was isolated by RNeasy kit (Qiagen, 74136). For all sample types, 0.5 μg of total RNA was used for cDNA synthesis with Quantitect Reverse Transcription Kit (Qiagen, 205313), and quantitative RT-PCR was performed with Fast SYBR-Green Master Mix (Applied Biosystems) detected by StepOne Plus RealTime PCR system (Applied Biosystems). The sequences of qPCR primers used for mRNA quantification in this study were obtained from Integrated DNA Technologies, and are as follows: mouse TNFα forward, […] (SEQ ID NO: 1) [200 nM]; mouse TNFα reverse, […] (SEQ ID NO: 2) [200 nM]; mouse GAPDH forward, […] (SEQ ID NO: 3) [300 nM]; mouse GAPDH reverse, […] (SEQ ID NO: 4) [300 nM]; rat TNFα forward, […] (SEQ ID NO: 1) [600 nM]; rat TNFα reverse, […] (SEQ ID NO: 5) [600 nM]; rat cyclophilin forward, […] (SEQ ID NO: 6) [500 nM]; rat cyclophilin reverse, […] (SEQ ID NO: 7) [500 nM]. After 40 cycles, the Ct values were determined. To normalize the samples, ΔCt between TNFα and GADPH or cyclophilin Ct values was calculated. The x-fold difference in expression between the different treatments was then determined by subtraction of the ΔCt values and termed ΔΔCt. Finally, the total change was calculated as 2-ΔΔct and the relative amount compared with control samples was deducted.
# Mixed microglia-astrocyte primary cultures were prepared from the striatum of postnatal rats (day 0), essentially as described (Beattie et al., 2002). Briefly, tissue was dissociated by […], and cells were seeded in glia media (MEM containing 5% FBS, 1.5% high sucrose MEM and 0.1% glutamax) on culture flasks (Corning) coated with poly-D lysine (Sigma) and placed in a humidified incubator at 37 C with 5% CO2. Neurons were removed by mechanical disruption and the medium was changed at day 1, and every 5-7 days after. […]
# [2] = system: primary rat astrocyte cultures; details: dopamine 0.1 μm with ascorbic acid, 3 hours
# Description: For tissue, total RNA from the ventral striatum was extracted and isolated by RNAqueous-4PCR total RNA isolation kit (Ambion, AM1914), according to manufacturer's instructions. For microglia and astrocyte cultures, total RNA was isolated by RNeasy kit (Qiagen, 74136). For all sample types, 0.5 μg of total RNA was used for cDNA synthesis with Quantitect Reverse Transcription Kit (Qiagen, 205313), and quantitative RT-PCR was performed with Fast SYBR-Green Master Mix (Applied Biosystems) detected by StepOne Plus RealTime PCR system (Applied Biosystems). The sequences of qPCR primers used for mRNA quantification in this study were obtained from Integrated DNA Technologies, and are as follows: mouse TNFα forward, […] (SEQ ID NO: 1) [200 nM]; mouse TNFα reverse, […] (SEQ ID NO: 2) [200 nM]; mouse GAPDH forward, […] (SEQ ID NO: 3) [300 nM]; mouse GAPDH reverse, […] (SEQ ID NO: 4) [300 nM]; rat TNFα forward, […] (SEQ ID NO: 1) [600 nM]; rat TNFα reverse, […] […] After 40 cycles, the Ct values were determined. To normalize the samples, ΔCt between TNFα and GADPH or cyclophilin Ct values was calculated. The x-fold difference in expression between the different treatments was then determined by subtraction of the ΔCt values and termed ΔΔCt. Finally, the total change was calculated as 2-ΔΔct and the relative amount compared with control samples was deducted. […]
# [3] = system: adult microglial cells; test: TNFα mRNA in cultured adult mouse microglia; assay type: cell-based; details: dopamine 0.1 μm, 3 hours; not significant p=0.057
# Description: (SEQ ID NO: 1) [200 nM]; mouse TNFα reverse, […] (SEQ ID NO: 2) [200 nM]; mouse GAPDH forward, […] (SEQ ID NO: 3) [300 nM]; mouse GAPDH reverse, […] (SEQ ID NO: 4) [300 nM]; rat TNFα forward, […] (SEQ ID NO: 1) [600 nM]; rat TNFα reverse, […] (SEQ ID NO: 5) [600 nM]; rat cyclophilin forward, […] (SEQ ID NO: 6) [500 nM]; rat cyclophilin reverse, […] (SEQ ID NO: 7) [500 nM]. After 40 cycles, the Ct values were determined.
# Adult male C57BL/6 mice (8-12 weeks) underwent cardiac perfusion with Hank's Balanced Salt Solution (HBSS) and whole brains were removed. Cortices and striata were dissected, cut in to small pieces and subjected to enzymatic digestion with the Neural Tissue Dissociation Kit (P) (Miltenyi Biotech, US cat no. 130-092-628), as per manufactures instructions. Tissue was homogenised and resuspended in 35% isotonic Percoll, overlayed with HBSS and spun at 400 g for 45 mins for the removal of myelin. Pure populations of microglial cells were obtained through magnetic bead cell sorting using CD11b microbeads (Miltenyi, cat no. 130-093-634). Aliquots from positive and negative bead selected fractions were removed for cell staining to assess cell purity. […] Cells were acquired using a BD FACS Canto II and analyzed using BD FACSDiva software. […]
smiles,measurement,setting,value
"Cl.NCCc1ccc(O)c(O)c1 [dopamine, dopamine hydrochloride]",TNFα mRNA in microglia cultures,[1],significantly increased
same,TNFα production in astrocytes,[2],does not alter
same,"TNFα mRNA, cultured adult microglia",[3],160 % of control
